Measured values from the NIST ThermoML archive (doi:10.1007/s10765-009-0602-6).
Several values for one entry are separate records, joined by “and”; a condition that tells them apart may be missing. Identical values can stand only once.

Test: xn = mol fraction of the nth substance listed
Settings: Liquid, Other PVT measurement, x1 = 0.2607

N [ammonia] + O
Settings	mass density
508.07 K	671.23 kg/m3
519.77 K	649.65 kg/m3
545.62 K	594.32 kg/m3
561.03 K	552.58 kg/m3
565.36 K	540.25 kg/m3
580.18 K	476.26 kg/m3
584.95 K	456.58 kg/m3
585.31 K	120.03 kg/m3
594.14 K	147.43 kg/m3
595.16 K	376.89 kg/m3
597.36 K	160.07 kg/m3
597.56 K	342.19 kg/m3
598.33 K	329 kg/m3
598.96 K	320.33 kg/m3
599.42 K	312.91 kg/m3
599.57 K	311.19 kg/m3
599.67 K	310.95 kg/m3
599.78 K	308.35 kg/m3
599.89 K	307.35 kg/m3
600.02 K	305.44 kg/m3
600.17 K	303.47 kg/m3
600.29 K	301.94 kg/m3
600.48 K	299.79 kg/m3
600.63 K	297.6 kg/m3
600.81 K	295.31 kg/m3
600.93 K	292.97 kg/m3
601.05 K	291.16 kg/m3
601.16 K	188.05 kg/m3
601.34 K	285.71 kg/m3
601.75 K	195.99 kg/m3
602.05 K	271.09 kg/m3
602.26 K	206 kg/m3
602.45 K	260.02 kg/m3
602.74 K	214.83 kg/m3
602.85 K	218.92 kg/m3
602.91 K	243.98 kg/m3
602.96 K	230.31 kg/m3 and 224.53 kg/m3
602.97 K	227.54 kg/m3
